Measurements reported in patent US9908897B2, “Spirocyclic derivatives” (CHRONOS THERAPEUTICS LIMITED, priority 2014, dated 2018).

Columns and labels:
[1] = target: human dopamine transporter (DAT) (Homo sapiens (Human), UniProt Q01959); assay: Scintillation Proximity Assay (SPA) competition binding, human DAT; conditions: recombinant hDAT-CHO membranes, [3H]WIN-35,428
Method in brief: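 SPA binding on membranes from CHO cells stably expressing human DAT, with 5 nM [3H]WIN-35,428, WGA-PVT beads and 0.02% BSA in HEPES/NaCl/KCl buffer pH 7.4.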

[2] = target: human norepinephrine transporter (NET) (Homo sapiens (Human), UniProt P23975); assay: Scintillation Proximity Assay (SPA) competition binding, human NET; conditions: recombinant hNET-CHO membranes, [3H]nisoxetine
[3] = target: human serotonin transporter (SERT) (Homo sapiens (Human), UniProt P31645); assay: Scintillation Proximity Assay (SPA) competition binding, human SERT; conditions: recombinant hSERT-CHO membranes, [3H]citalopram
[4] = target: human ERG potassium channel (hERG) (Homo sapiens (Human), UniProt Q12809); assay: hERG tail current recording, Rapid ICE automated patch-clamp; format: cell-based; conditions: HEK293 cells stably transfected with hERG
Description: Measure of the Effect on hERG Channel by Tail Current Recording Using In Vitro Rapid ICE™
The potency of the compounds of the invention in inhibiting human ERG potassium channel (hERG) tail current is assessed in a recombinant HEK293 cell line stably transfected with hERG cDNA using Rapid ICE™ (Rapid Ion Channel Electrophysiology) assay. Rapid ICE™ is an automated patch-clamp assay utilizing the PatchXpress 7000A system (Molecular Devices Corporation) or the QPatch HTX system (Sophion Bioscience A/S).
Briefly cells are cultivated for 24 to 72 hours before recordings in minimum essential medium supplemented with 10% FBS, 1% non-essential amino acids, 1% sodium pyruvate, 2 mM L-glutamine. The day of the experiment cells are detached with TrypLE and prepared to be loaded on the instrument. For PatchXpress cells are finally resuspended in 150 μl of Extracellular Buffer whereas for QPatch cells are resuspended in 7 ml Serum-Free Media containing 25 mM Hepes and Soybean trypsin inhibitor and immediately placed in the cell storage tank of the machine. The composition of the Extracellular Buffer is (mM): NaCl 137; KCl 4; CaCl2 1.8; MgCl2 1.0; D-glucose 10; N 2 hydroxyethylpiperazine-N′-2-ethanesulfonic acid (HEPES) 10; pH 7.4 with 1 M NaOH. The composition of the pipette solution is (mM): KCl 130; MgCl2 1.0; Ethylene glycol-bis(β-aminoethyl ether)-N,N,N′,N′-tetraacetic acid (EGTA) 5; MgATP 5; HEPES 10; pH 7.2 with 1 M KOH. The voltage protocol includes the following steps: step from −80 mV to −50 mV for 200 ms, +20 mV for 4.8 s, step to −50 mV for 5 s then step to the holding potential of −80 mV. Compounds of the invention are dissolved in DMSO and diluted in Extracellular Buffer to achieve final test concentrations (0.1, 1 and 10 μM) in 0.1% DMSO. The voltage protocol is run and recorded continuously during the experiment. The vehicle, corresponding to 0.1% DMSO in Extracellular Buffer, is then applied for 3 min followed by the test substance in triplicate. The standard combined exposure time is 5 min. The average of tail current amplitude values recorded from 4 sequential voltage pulses is used to calculate for each cell the effect of the test substance by calculating the residual current (% control) compared with vehicle pre-treatment. Data are reported as % inhibition for each concentration tested and IC50 values are estimated using DataXpress or QPatch software. At least two cells are tested, more if results diverge.

Chain of human serotonin transporter (SERT) (P31645 whole entry): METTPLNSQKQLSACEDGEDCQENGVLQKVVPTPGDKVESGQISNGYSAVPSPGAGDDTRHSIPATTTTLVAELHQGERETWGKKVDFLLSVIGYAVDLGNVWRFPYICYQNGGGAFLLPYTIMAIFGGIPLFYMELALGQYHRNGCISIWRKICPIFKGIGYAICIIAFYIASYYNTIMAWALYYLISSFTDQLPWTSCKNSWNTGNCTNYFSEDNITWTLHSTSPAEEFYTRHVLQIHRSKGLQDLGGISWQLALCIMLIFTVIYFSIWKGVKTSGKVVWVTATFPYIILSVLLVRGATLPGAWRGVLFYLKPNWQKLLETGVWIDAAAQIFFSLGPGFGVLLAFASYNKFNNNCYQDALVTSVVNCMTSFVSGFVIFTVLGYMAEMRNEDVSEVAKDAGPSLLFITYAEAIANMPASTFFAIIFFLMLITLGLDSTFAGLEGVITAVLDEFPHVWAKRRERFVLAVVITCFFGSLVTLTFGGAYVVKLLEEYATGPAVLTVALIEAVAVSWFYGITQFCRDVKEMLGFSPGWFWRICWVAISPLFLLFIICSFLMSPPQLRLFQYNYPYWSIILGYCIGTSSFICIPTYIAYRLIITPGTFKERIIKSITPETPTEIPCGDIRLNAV
Chain of human ERG potassium channel (hERG) (Q12809 whole entry): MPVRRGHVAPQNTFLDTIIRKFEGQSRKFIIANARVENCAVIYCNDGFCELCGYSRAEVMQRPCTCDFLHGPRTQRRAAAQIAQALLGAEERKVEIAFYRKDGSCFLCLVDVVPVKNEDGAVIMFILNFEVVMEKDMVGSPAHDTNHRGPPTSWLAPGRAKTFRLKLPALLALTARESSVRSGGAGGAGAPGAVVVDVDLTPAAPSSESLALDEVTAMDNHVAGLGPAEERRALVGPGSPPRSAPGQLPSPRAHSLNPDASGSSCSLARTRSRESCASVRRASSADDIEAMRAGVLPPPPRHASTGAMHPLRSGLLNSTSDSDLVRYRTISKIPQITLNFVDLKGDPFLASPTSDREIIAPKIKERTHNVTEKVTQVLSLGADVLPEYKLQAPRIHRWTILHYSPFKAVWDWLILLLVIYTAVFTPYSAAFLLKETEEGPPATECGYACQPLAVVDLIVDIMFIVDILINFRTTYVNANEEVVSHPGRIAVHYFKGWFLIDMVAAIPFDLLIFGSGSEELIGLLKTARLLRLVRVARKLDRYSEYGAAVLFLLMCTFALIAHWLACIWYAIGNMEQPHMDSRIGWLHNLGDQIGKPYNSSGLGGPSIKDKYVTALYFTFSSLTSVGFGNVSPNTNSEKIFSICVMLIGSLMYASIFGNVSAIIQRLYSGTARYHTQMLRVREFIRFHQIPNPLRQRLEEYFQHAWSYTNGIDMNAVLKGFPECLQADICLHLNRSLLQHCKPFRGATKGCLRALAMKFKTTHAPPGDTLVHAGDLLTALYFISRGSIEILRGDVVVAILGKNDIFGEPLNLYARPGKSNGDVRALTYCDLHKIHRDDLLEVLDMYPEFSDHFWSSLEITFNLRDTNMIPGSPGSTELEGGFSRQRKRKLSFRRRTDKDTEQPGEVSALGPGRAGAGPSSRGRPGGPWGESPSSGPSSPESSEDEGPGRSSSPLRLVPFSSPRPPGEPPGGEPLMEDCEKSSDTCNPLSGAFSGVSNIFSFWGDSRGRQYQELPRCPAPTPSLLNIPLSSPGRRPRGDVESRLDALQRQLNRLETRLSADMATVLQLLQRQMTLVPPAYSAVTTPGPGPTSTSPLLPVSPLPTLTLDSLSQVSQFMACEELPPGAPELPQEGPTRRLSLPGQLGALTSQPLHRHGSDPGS
Chain of human norepinephrine transporter (NET) (P23975 whole entry): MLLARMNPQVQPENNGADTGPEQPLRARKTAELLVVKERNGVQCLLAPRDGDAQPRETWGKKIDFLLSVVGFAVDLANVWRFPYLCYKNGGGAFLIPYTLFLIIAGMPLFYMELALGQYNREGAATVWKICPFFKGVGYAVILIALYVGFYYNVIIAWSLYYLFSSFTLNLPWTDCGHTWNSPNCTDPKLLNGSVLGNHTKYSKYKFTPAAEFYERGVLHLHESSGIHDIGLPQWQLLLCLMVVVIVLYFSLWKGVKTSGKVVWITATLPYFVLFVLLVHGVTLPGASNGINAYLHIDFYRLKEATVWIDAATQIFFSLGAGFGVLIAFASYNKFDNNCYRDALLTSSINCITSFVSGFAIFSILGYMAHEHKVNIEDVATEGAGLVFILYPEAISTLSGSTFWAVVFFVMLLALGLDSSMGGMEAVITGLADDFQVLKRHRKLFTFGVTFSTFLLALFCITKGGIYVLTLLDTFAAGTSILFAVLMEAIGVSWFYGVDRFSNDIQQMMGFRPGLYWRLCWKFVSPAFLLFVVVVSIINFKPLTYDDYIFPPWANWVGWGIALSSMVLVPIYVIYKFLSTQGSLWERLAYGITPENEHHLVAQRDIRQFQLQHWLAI
Chain of human dopamine transporter (DAT) (Q01959 whole entry): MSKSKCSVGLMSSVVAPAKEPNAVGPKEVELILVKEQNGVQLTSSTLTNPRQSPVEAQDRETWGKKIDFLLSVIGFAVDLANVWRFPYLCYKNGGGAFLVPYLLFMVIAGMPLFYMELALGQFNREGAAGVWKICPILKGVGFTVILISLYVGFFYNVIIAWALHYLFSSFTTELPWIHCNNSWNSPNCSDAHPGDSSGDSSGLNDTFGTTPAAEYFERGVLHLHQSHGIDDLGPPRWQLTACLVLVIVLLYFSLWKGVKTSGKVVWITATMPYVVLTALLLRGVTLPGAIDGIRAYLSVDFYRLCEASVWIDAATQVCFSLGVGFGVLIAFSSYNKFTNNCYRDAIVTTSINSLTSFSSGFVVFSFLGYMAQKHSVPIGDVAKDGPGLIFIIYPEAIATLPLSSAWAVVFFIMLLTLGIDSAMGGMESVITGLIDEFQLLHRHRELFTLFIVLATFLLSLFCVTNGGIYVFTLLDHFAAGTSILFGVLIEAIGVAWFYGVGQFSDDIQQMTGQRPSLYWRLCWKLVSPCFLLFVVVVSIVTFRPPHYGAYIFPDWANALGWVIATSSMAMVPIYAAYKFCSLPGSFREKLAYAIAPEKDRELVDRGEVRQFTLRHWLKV

SMILES	pIC50 DAT [1]	pIC50 NET [2]	pIC50 SERT [3]	pIC50 hERG [4]
Fc1cccc(Oc2cc(F)c(F)cc2N2CCC3(CC2)CNCCO3)c1 [Example 1, 9-[4,5-difluoro-2-(3-fluorophenoxy)phenyl]-1-oxa-4,9-diazaspiro[5.5]undecane]	7.96	5.69	6.44	6.0
Fc1cccc(Oc2ccccc2N2CCC3(CC2)CNCCO3)c1 [Example 4, 9-[2-(3-fluorophenoxy)phenyl]-1-oxa-4,9-diazaspiro[5.5]undecane]	7.31	6.13	6.24	5.8
N#Cc1ccc(Oc2ccccc2)c(N2CCC3(CC2)CNCCO3)c1 [Example 5, 3-{1-oxa-4,9-diazaspiro[5.5]undecan-9-yl}-4-phenoxybenzonitrile]	6.82	6.19	7.63	6.2
Fc1cccc(Oc2cccc(N3CCC4(CC3)CNCCO4)c2)c1 [Example 7, 9-[3-(3-fluorophenoxy)phenyl]-1-oxa-4,9-diazaspiro[5.5]undecane]	7.54	6.33	5.99	5.8
Fc1cccc(Oc2cc(F)cc(N3CCC4(CC3)CNCCO4)c2)c1 [Example 8, 9-[3-fluoro-5-(3-fluorophenoxy)phenyl]-1-oxa-4,9-diazaspiro[5.5]undecane]	8.25	6.90	7.10	6.3
Fc1cccc(Oc2ccc(F)c(N3CCC4(CC3)CNCCO4)c2)c1 [Example 10, 9-[2-fluoro-5-(3-fluorophenoxy)phenyl]-1-oxa-4,9-diazaspiro[5.5]undecane]	7.56	6.07	5.32	5.6
Fc1cccc(Oc2cc(N3CCC4(CC3)CNCCO4)ccc2F)c1 [Example 11, 9-[4-fluoro-3-(3-fluorophenoxy)phenyl]-1-oxa-4,9-diazaspiro[5.5]undecane]	6.78	5.72	6.22	6.5
Fc1cccc(Oc2cc(F)c(F)c(N3CCC4(CC3)CNCCO4)c2)c1 [Example 13, 9-[2,3-difluoro-5-(3-fluorophenoxy)phenyl]-1-oxa-4,9-diazaspiro[5.5]undecane]	8.38	6.74	6.33	5.6
Fc1c(Oc2ccccc2)cccc1N1CCC2(CC1)CNCCO2 [Example 17, 9-(2-fluoro-3-phenoxyphenyl)-1-oxa-4,9-diazaspiro[5.5]undecane]	8.42	6.46	5.65	5.4
Fc1cccc(Oc2cccc(N3CCC4(CC3)CNCCO4)c2F)c1 [Example 19, 9-[2-fluoro-3-(3-fluorophenoxy)phenyl]-1-oxa-4,9-diazaspiro[5.5]undecane]	8.64	7.01	5.99	5.4
Fc1cccc(Oc2cc(F)cc(N3CCC4(CC3)CNCCO4)c2F)c1 [Example 21, 9-[2,5-difluoro-3-(3-fluorophenoxy)phenyl]-1-oxa-4,9-diazaspiro[5.5]undecane]	9.11	7.49	6.48	5.4
N#Cc1cc(Oc2ccccc2)cc(N2CCC3(CC2)CNCCO3)c1 [Example 25, 3-{1-oxa-4,9-diazaspiro[5.5]undecan-9-yl}-5-phenoxybenzonitrile]	8.66	7.19	7.43	6.1
Cl.Fc1cccc(Oc2cc(C(F)(F)F)cc(N3CCC4(CC3)CNCCO4)n2)c1 [Example 37, 9-[6-(3-fluorophenoxy)-4-(trifluoromethyl)pyridin-2-yl]-1-oxa-4,9-diazaspiro[5.5]undecane hydrochloride]	8.86	7.07	5.33	5.9
Cl.Fc1cccc(Oc2cncc(N3CCC4(CC3)CNCCO4)n2)c1 [Example 41, 9-[6-(3-fluorophenoxy)pyrazin-2-yl]-1-oxa-4,9-diazaspiro[5.5]undecane hydrochloride]	7.44	5.33	6.02	5.9
Cl.Fc1cccc(Oc2ccnc(N3CCC4(CC3)CNCCO4)n2)c1 [Example 42, 9-[4-(3-fluorophenoxy)pyrimidin-2-yl]-1-oxa-4,9-diazaspiro[5.5]undecane hydrochloride]	7.33	5.64	4.69	6.4
Cc1cc(Oc2ccccc2)nc(N2CCC3(CC2)CNCCO3)n1.Cl [Example 43, 9-(4-methyl-6-phenoxypyrimidin-2-yl)-1-oxa-4,9-diazaspiro[5.5]undecane hydrochloride]	8.01	6.11	4.42	5.7
Cc1cc(Oc2cccc(F)c2)nc(N2CCC3(CC2)CNCCO3)n1.Cl [Example 44, 9-[4-(3-fluorophenoxy)-6-methylpyrimidin-2-yl]-1-oxa-4,9-diazaspiro[5.5]undecane hydrochloride]	8.29	6.65	4.80	6.0
Cc1cccc(Oc2cc(C)nc(N3CCC4(CC3)CNCCO4)n2)c1.Cl [Example 45, 9-[4-methyl-6-(3-methylphenoxy)pyrimidin-2-yl]-1-oxa-4,9-diazaspiro[5.5]undecane hydrochloride]	7.59	5.54	4.83	5.7
Cc1cc(Oc2cccc(C#N)c2)nc(N2CCC3(CC2)CNCCO3)n1.Cl [Example 46, 3-[(6-methyl-2-{1-oxa-4,9-diazaspiro[5.5]undecan-9-yl}pyrimidin-4-yl)oxy]benzonitrile hydrochloride]	8.03	5.85	6.11	6.6
Cc1cc(Oc2cccc(C(F)(F)F)c2)nc(N2CCC3(CC2)CNCCO3)n1.Cl [Example 48, 9-{4-methyl-6-[3-(trifluoromethyl)phenoxy]pyrimidin-2-yl}-1-oxa-4,9-diazaspiro[5.5]undecane hydrochloride]	6.50	5.48	5.58	5.6
COc1cccc(Oc2cc(C)nc(N3CCC4(CC3)CNCCO4)n2)c1.Cl [Example 49, 9-[4-(3-methoxyphenoxy)-6-methylpyrimidin-2-yl]-1-oxa-4,9-diazaspiro[5.5]undecane hydrochloride]	6.92	5.45	4.67	5.5
Cl.FC(F)(F)c1cc(Oc2ccccc2)nc(N2CCC3(CC2)CNCCO3)n1 [Example 55, 9-[4-phenoxy-6-(trifluoromethyl)pyrimidin-2-yl]-1-oxa-4,9-diazaspiro[5.5]undecane hydrochloride]	8.19	6.12	6.14	5.7
Cl.Fc1cccc(Oc2cc(F)c(F)cc2N2CCC3(CCNCC34OCCO4)C2)c1 (stereo not shown) [Example 94, 8-[4,5-difluoro-2-(3-fluorophenoxy)phenyl]-1,4-dioxa-8,13-diazadispiro[4.0.4^6.4^5]tetradecane hydrochloride]	8.69	7.11	7.14	
Fc1cccc(Oc2cc(C(F)(F)F)nc(N3CC4(CNCCO4)C3)n2)c1 [Example 102, 2-[4-(3-fluorophenoxy)-6-(trifluoromethyl)pyrimidin-2-yl]-5-oxa-2,8-diazaspiro[3.5]nonane]	8.00	6.22	4.00	
